From PubChem BioAssay (NCI)
Where “and” joins values, the source holds several entries; their conditions need not be identical. Equal entries are not always repeated.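 A five-concentration, 48-hour dose response in 96-well plates underlies each endpoint, interpolated linearly between surrounding concentrations. At the GI50, growth is halved. TGI: concentration producing complete growth inhibition.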

Columns and labels:
Experiment in all cases: inhibition of tumour cell growth, NCI panel, 48 h
[1] = tested on: NCI-H460 lung
[2] = tested on: COLO 205 colon
[3] = tested on: TK-10 renal
[4] = tested on: MOLT-4 leukemia
[5] = tested on: ACHN renal
[6] = tested on: RPMI-8226 leukemia
[7] = tested on: MCF7 breast
[8] = tested on: SF-295 CNS
[9] = tested on: OVCAR-8 ovarian
[10] = tested on: OVCAR-4 ovarian

Structure (SMILES)	GI50 [1]	TGI [1]	GI50 [2]	TGI [2]	GI50 [3]	TGI [3]	GI50 [4]	GI50 [5]	TGI [5]	GI50 [6]	TGI [6]	GI50 [7]	TGI [7]	GI50 [8]	TGI [8]	GI50 [9]	TGI [9]	GI50 [10]	TGI [10]	TGI [4]
COc1cccc2c1C(=O)c1c(O)c3c(c(O)c1C2=O)C[C@@](O)(C(=O)CO)C[C@@H]3OC1CC(OC(C)=O)C(OC(C)=O)C(C)O1 (some centres not stated)	< 0.0239 µM	1.57 µM	0.801 µM	4.45 µM	0.985 µM	6.43 µM	< 0.0282 µM	0.152 µM	1.44 µM	0.226 µM	2.11 µM	< 0.0284 µM	7.64 µM	0.234 µM	1.25 µM	0.479 µM	> 58.1 µM	2.24 µM	> 39.6 µM	–
Cc1cc(C(=O)N[C@@H](CCC(=O)O)C(=O)O)sc1CC[C@@H]1CNc2nc(N)[nH]c(=O)c2C1	< 0.0119 µM	> 100 µM	0.0309 µM	> 100 µM	< 0.0154 µM	> 100 µM	0.0292 µM	< 0.01 µM	> 100 µM	0.0648 µM	> 100 µM	0.0102 µM	> 100 µM	0.0496 µM	> 100 µM	< 0.0172 µM	> 90.6 µM	23.3 µM	> 100 µM	> 100 µM
CN1C(=O)N(C)C2C1NN=c1s/c(=C\c3c[nH]c4ccccc34)c(=O)n12 (configuration not stated)	0.0397 µM	> 100 µM	0.0363 µM	0.564 µM	34.7 µM	> 100 µM	0.0644 µM	0.0754 µM	> 100 µM	0.0346 µM	1.55 µM	0.0338 µM	> 100 µM	0.0304 µM	33.6 µM	0.0547 µM	> 100 µM	–	> 100 µM	> 100 µM
CC(N)(Cc1c[nH]c2ccccc12)C(=O)O (configuration not stated)	> 2500 µM	> 2500 µM	> 2500 µM	> 2500 µM	> 2500 µM	> 2500 µM	> 2500 µM	> 2500 µM	> 2500 µM	> 2500 µM	> 2500 µM	> 2500 µM	> 2500 µM	> 2500 µM	> 2500 µM	> 2500 µM	> 2500 µM	> 2500 µM	> 2500 µM	> 2500 µM
Cc1cc(Nc2cc(CN3CCOCC3)c3nc(C)c(Cc4ccc(Cl)cc4F)n3n2)n[nH]1	0.437 µM	6.63 µM	0.684 µM	2.01 µM	2.14 µM	6.61 µM	1.59 µM	1.63 µM	10.9 µM	1.88 µM	14.8 µM	0.644 µM	12.9 µM	1.79 µM	5.73 µM	2.79 µM	17.2 µM	2.85 µM	16.7 µM	6.71 µM
COc1ccc(S(=O)(=O)NC2=NCCN2C(=S)SN2CCn3c2nsc3=S)cc1OC	28.1 µM	> 100 µM	12.5 µM	29 µM	22.2 µM	73.8 µM	27.1 µM	28.9 µM	> 100 µM	7.93 µM	27.5 µM	15.7 µM	35.7 µM	20.9 µM	56.2 µM	29.5 µM	> 100 µM	16 µM	34.8 µM	> 100 µM
COc1cc(-c2cc(-c3nc4cc(Cl)c(Cl)cc4[nH]3)[nH]n2)cc(OC)c1OC	3.33 µM	12.9 µM	3.77 µM	12.7 µM	4.61 µM	15.5 µM	2.49 µM	3.54 µM	12.8 µM	1.75 µM	4.39 µM	2.79 µM	11.5 µM	3.04 µM	11.5 µM	2.51 µM	7.48 µM	2.21 µM	6.77 µM	6.29 µM
CC(C)(C)OC(=O)N1CC(Cn2cc(C(F)(F)F)c3c(Cl)ncnc32)C1	2.06 µM	3.99 µM	12.6 µM	28.5 µM	24.6 µM	62.5 µM	2.39 µM	15 µM	31.9 µM	2.67 µM	6.33 µM	2.13 µM	6.15 µM	1.99 µM	4.75 µM	1.84 µM	3.58 µM	10.2 µM	23.2 µM	6.28 µM
S=c1nc[nH]c2nc[nH]c12	4.74 µM	> 730 µM	18.8 µM	> 100 µM and 546 µM and > 750 µM	58 µM and 10.2 µM	> 100 µM and 549 µM and 332 µM	2.34 µM and 13.2 µM	4.88 µM	> 737 µM	1.18 µM and 10.3 µM	> 100 µM and 489 µM and 171 µM	–	> 100 µM and 512 µM and > 413 µM	1.76 µM and 12.3 µM	> 100 µM and 735 µM and > 750 µM	3.74 µM and 35.5 µM	> 100 µM and 739 µM and > 532 µM	70.8 µM and 61.2 µM	> 100 µM and 618 µM and > 750 µM	26.8 µM and 245 µM and 31.6 µM
O=C1c2ccc3c4c(ccc(c24)C(=O)N1CCCNCc1ccccc1)C(=O)N(CCCNCc1ccccc1)C3=O	0.146 µM	0.579 µM	0.113 µM	0.24 µM	0.119 µM	0.413 µM	0.0858 µM	0.135 µM	0.722 µM	0.265 µM	0.939 µM	0.0808 µM	0.33 µM	0.173 µM	0.432 µM	0.0993 µM	0.407 µM	0.119 µM	0.248 µM	0.437 µM
COc1cc(/C=C2\CCCC3C2=Nc2ccccc2NC3c2cc(OC)c(OC)c(OC)c2)cc(OC)c1OC (configuration not stated)	0.643 µM	2.42 µM	2.59 µM	6.29 µM	3.49 µM	17.7 µM	2.31 µM	1.66 µM	3.57 µM	0.389 µM	2.4 µM	2.48 µM	> 100 µM	3.65 µM	> 100 µM	0.4 µM	42.9 µM	2.14 µM	> 100 µM	5.4 µM
COc1ccc(N2CCN(CN3CCN(c4ccc(OC)cc4)C3)C2)cc1	> 100 µM	> 100 µM	> 100 µM	> 100 µM	> 100 µM	> 100 µM	12.3 µM	33.5 µM	96.9 µM	32.6 µM	> 100 µM	69.5 µM	> 100 µM	> 100 µM	> 100 µM	> 100 µM	> 100 µM	> 100 µM	> 100 µM	37.2 µM
